Experimental data published in the supplement of paper PMC10307832.

Columns and labels:
Assay in all cases: relative viability (nuclei count vs DMSO), 5 days (fraction); higher = more cells survive
AZ628 + Lapatinib = compound: CC1=C(C=C(C=C1)NC(=O)C2=CC(=CC=C2)C(C)(C)C#N)NC3=CC4=C(C=C3)N=CN(C4=O)C [AZ628] + CS(=O)(=O)CCNCc1ccc(-c2ccc3ncnc(Nc4ccc(OCc5cccc(F)c5)c(Cl)c4)c3c2)o1 [Lapatinib] (partner 2 µM)
Outline: (§1)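 Lung cancer cell lines in 1536-well plates got either a single drug or a fixed anchor-drug dose together with five library-drug doses (not always all listed) in √10 steps, by pin tool, on the day after seeding. Nuclei were counted after 5 days, and relative viability is the treated-to-vehicle ratio of nuclei counts. Values are medians of duplicate plates.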

AZ628 + Navitoclax = compound: CC1=C(C=C(C=C1)NC(=O)C2=CC(=CC=C2)C(C)(C)C#N)NC3=CC4=C(C=C3)N=CN(C4=O)C [AZ628] + CC1(C)CCC(c2ccc(Cl)cc2)=C(CN2CCN(c3ccc(C(=O)NS(=O)(=O)c4ccc(N[C@H](CCN5CCOCC5)CSc5ccccc5)c(S(=O)(=O)C(F)(F)F)c4)cc3)CC2)C1 [Navitoclax] (partner 0.5 µM)
Outline: as §1

[1] = compound: C[As](C)SC[C@H](NC(=O)CC[C@H](N)C(=O)O)C(=O)NCC(=O)O [Darinaparsin] + CC(C)C[C@H](NC(=O)[C@H](Cc1ccccc1)NC(=O)c1cnccn1)B(O)O [Bortezomib] (partner 0.002 µM)
Outline: as §1

QS11 + Pictilisib = compound: C1CC2=C(C1)C=C(C=C2)OC3=NC(=C4C(=N3)N(C=N4)CC5=CC=C(C=C5)C6=CC=CC=C6)N[C@@H](CC7=CC=CC=C7)CO [QS11] + CS(=O)(=O)N1CCN(Cc2cc3nc(-c4cccc5[nH]ncc45)nc(N4CCOCC4)c3s2)CC1 [Pictilisib] (partner 1 µM)
Outline: as §1

With LCLC-97TM1 the relative viability (AZ628 + Lapatinib; first compound 0.08 µM) was 1.01, the relative viability (AZ628 + Lapatinib; first compound 0.253 µM) was 1.01 and the relative viability (AZ628 + Lapatinib; first compound 0.8 µM) was 1.37. For the same cell line, the relative viability (AZ628 + Lapatinib; first compound 2.53 µM) was 1.2, the relative viability (AZ628 + Lapatinib; first compound 8 µM) was 0.152 and the relative viability (AZ628 + Navitoclax; first compound 0.08 µM) was 0.86. It also gave a relative viability (AZ628 + Navitoclax; first compound 0.253 µM) of 0.436, a relative viability (AZ628 + Navitoclax; first compound 0.8 µM) of 0.48 and a relative viability (AZ628 + Navitoclax; first compound 2.53 µM) of 0.437. It also gave a relative viability (AZ628 + Navitoclax; first compound 8 µM) of 0.255, a relative viability ([1]; first compound 0.08 µM) of 0.765 and a relative viability ([1]; first compound 0.8 µM) of 0.513. The relative viability ([1]; first compound 2.53 µM) was 0.416, the relative viability ([1]; first compound 8 µM) was 0.481 and the relative viability (QS11 + Pictilisib; first compound 0.08 µM) was 0.14. For the same cell line, the relative viability (QS11 + Pictilisib; first compound 0.253 µM) was 0.193, the relative viability (QS11 + Pictilisib; first compound 0.8 µM) was 0.209 and the relative viability (QS11 + Pictilisib; first compound 2.53 µM) was 0.302. The relative viability (QS11 + Pictilisib; first compound 8 µM) was 0.289.
